Measured values from the NIST ThermoML archive (doi:10.1021/je400055v).

Test: xn = mol fraction of the nth substance listed
Conditions: Liquid, Vibrating tube method

CCCCCCCCCCC [undecane] + CCCCCCC
Conditions | mass density [kg/m3]
333.04 K, 8001 kPa, x2 = 0.5063 | 694.1
333.04 K, 9000 kPa, x2 = 0.5063 | 695
333.04 K, 10000 kPa, x2 = 0.5063 | 696
333.04 K, 11000 kPa, x2 = 0.5063 | 696.9
333.04 K, 12000 kPa, x2 = 0.5063 | 697.8
333.04 K, 13000 kPa, x2 = 0.5063 | 698.7
333.04 K, 14000 kPa, x2 = 0.5063 | 699.6
333.04 K, 15000 kPa, x2 = 0.5063 | 700.5
333.04 K, 16000 kPa, x2 = 0.5063 | 701.4
333.04 K, 17001 kPa, x2 = 0.5063 | 702.2
333.04 K, 18000 kPa, x2 = 0.5063 | 703.1
333.04 K, 19000 kPa, x2 = 0.5063 | 703.9
333.04 K, 20000 kPa, x2 = 0.5063 | 704.7
333.04 K, 21001 kPa, x2 = 0.5063 | 705.6
333.04 K, 22050 kPa, x2 = 0.5063 | 706.3
333.04 K, 23000 kPa, x2 = 0.5063 | 707.1
333.04 K, 24000 kPa, x2 = 0.5063 | 707.9
333.04 K, 25000 kPa, x2 = 0.5063 | 708.7
333.05 K, 1000 kPa, x2 = 0.7482 | 670.8
333.05 K, 2000 kPa, x2 = 0.7482 | 672
333.05 K, 3000 kPa, x2 = 0.7482 | 673.1
333.05 K, 4000 kPa, x2 = 0.7482 | 674.3
333.05 K, 5000 kPa, x2 = 0.7482 | 675.4
333.05 K, 6000 kPa, x2 = 0.7482 | 676.4
333.05 K, 7000 kPa, x2 = 0.7482 | 677.5
333.05 K, 8000 kPa, x2 = 0.7482 | 678.6
333.05 K, 9000 kPa, x2 = 0.7482 | 679.6
333.05 K, 10000 kPa, x2 = 0.7482 | 680.6
333.05 K, 11000 kPa, x2 = 0.7482 | 681.6
333.05 K, 12000 kPa, x2 = 0.7482 | 682.6
333.05 K, 13000 kPa, x2 = 0.7482 | 683.6
333.05 K, 14000 kPa, x2 = 0.7482 | 684.5
333.05 K, 15000 kPa, x2 = 0.7482 | 685.4
333.05 K, 16000 kPa, x2 = 0.7482 | 686.4
333.05 K, 17000 kPa, x2 = 0.7482 | 687.3
333.05 K, 18000 kPa, x2 = 0.7482 | 688.2
333.05 K, 19000 kPa, x2 = 0.7482 | 689
333.05 K, 20000 kPa, x2 = 0.7482 | 689.9
333.05 K, 21000 kPa, x2 = 0.7482 | 690.8
333.05 K, 22000 kPa, x2 = 0.7482 | 691.6
333.05 K, 23000 kPa, x2 = 0.7482 | 692.4
333.05 K, 24000 kPa, x2 = 0.7482 | 693.2
333.05 K, 25000 kPa, x2 = 0.7482 | 694
333.09 K, 1001 kPa, x2 = 0.05 | 709.1
333.09 K, 1004 kPa, x2 = 0.2346 | 701.3
333.09 K, 2001 kPa, x2 = 0.05 | 710.1
333.09 K, 2004 kPa, x2 = 0.2346 | 702.3
333.09 K, 3000 kPa, x2 = 0.05 | 711
333.09 K, 3003 kPa, x2 = 0.2346 | 703.3
333.09 K, 4000 kPa, x2 = 0.05 | 712
333.09 K, 4003 kPa, x2 = 0.2346 | 704.2
333.09 K, 5000 kPa, x2 = 0.05 | 712.9
333.09 K, 5003 kPa, x2 = 0.2346 | 705.2
333.09 K, 6000 kPa, x2 = 0.05 | 713.8
333.09 K, 6003 kPa, x2 = 0.2346 | 706.1
333.09 K, 7000 kPa, x2 = 0.05 | 714.7
333.09 K, 7003 kPa, x2 = 0.2346 | 707
333.09 K, 8001 kPa, x2 = 0.05 | 715.6
333.09 K, 8002 kPa, x2 = 0.2346 | 708
333.09 K, 9000 kPa, x2 = 0.05 | 716.5
333.09 K, 9002 kPa, x2 = 0.2346 | 708.9
333.09 K, 10000 kPa, x2 = 0.05 | 717.3
333.09 K, 10002 kPa, x2 = 0.2346 | 709.7
333.09 K, 11000 kPa, x2 = 0.05 | 718.2
333.09 K, 11002 kPa, x2 = 0.2346 | 710.6
333.09 K, 12000 kPa, x2 = 0.05 | 719
333.09 K, 12002 kPa, x2 = 0.2346 | 711.5
333.09 K, 13000 kPa, x2 = 0.05 | 719.9
333.09 K, 13001 kPa, x2 = 0.2346 | 712.3
333.09 K, 14000 kPa, x2 = 0.05 | 720.7
333.09 K, 14001 kPa, x2 = 0.2346 | 713.2
333.09 K, 15000 kPa, x2 = 0.05 | 721.5
333.09 K, 15002 kPa, x2 = 0.2346 | 714
333.09 K, 16000 kPa, x2 = 0.05 | 722.3
333.09 K, 16002 kPa, x2 = 0.2346 | 714.8
333.09 K, 17000 kPa, x2 = 0.05 | 723.1
333.09 K, 17002 kPa, x2 = 0.2346 | 715.6
333.09 K, 18000 kPa, x2 = 0.05 | 723.8
333.09 K, 18002 kPa, x2 = 0.2346 | 716.4
333.09 K, 19000 kPa, x2 = 0.05 | 724.6
333.09 K, 19001 kPa, x2 = 0.2346 | 717.2
333.09 K, 20000 kPa, x2 = 0.05 | 725.4
333.09 K, 20002 kPa, x2 = 0.2346 | 718
333.09 K, 21000 kPa, x2 = 0.05 | 726.1
333.09 K, 21035 kPa, x2 = 0.2346 | 718.8
333.09 K, 22001 kPa, x2 = 0.05 | 726.8
333.09 K, 22036 kPa, x2 = 0.2346 | 719.5
333.09 K, 23000 kPa, x2 = 0.05 | 727.6
333.09 K, 23038 kPa, x2 = 0.2346 | 720.3
333.09 K, 24000 kPa, x2 = 0.05 | 728.3
333.09 K, 24039 kPa, x2 = 0.2346 | 721
333.09 K, 25000 kPa, x2 = 0.05 | 729
333.09 K, 25041 kPa, x2 = 0.2346 | 721.8
